Experimental findings from ChEMBL document CHEMBL4373715, “Discovery and Biological Evaluations of Halogenated 2,4-Diphenyl Indeno[1,2-b]pyridinol Derivatives as Potent Topoisomerase IIα-Targeted Chemotherapeutic Agents for Breast Cancer” (J Med Chem, 2019) are described below.

The structures appear in SMILES notation.

Test [1] concerns HCT-15. In words: Antiproliferative activity against human HCT15 cells measured after 72 hrs by EZ-Cytox assay. The test is classed as functional, cell-based. To be noted: HCT-15, 72 h.
For test [2], the system named is T47D. In words: Antiproliferative activity against human T47D cells measured after 72 hrs by EZ-Cytox assay. The class given is functional, cell-based.
The test system of test [3] is DU-145. In words: Antiproliferative activity against human DU145 cells measured after 72 hrs by EZ-Cytox assay. The test is classed as functional, cell-based. To be noted: DU-145, 72 h.
Test [4] relates to HeLa. In words: Antiproliferative activity against human HeLa cells measured after 72 hrs by EZ-Cytox assay. The test is classed as functional, cell-based.
For test [5], the target named is T1, DNA topoisomerase 1 (Homo sapiens) (UniProt P11387).
T1 sequence (whole entry): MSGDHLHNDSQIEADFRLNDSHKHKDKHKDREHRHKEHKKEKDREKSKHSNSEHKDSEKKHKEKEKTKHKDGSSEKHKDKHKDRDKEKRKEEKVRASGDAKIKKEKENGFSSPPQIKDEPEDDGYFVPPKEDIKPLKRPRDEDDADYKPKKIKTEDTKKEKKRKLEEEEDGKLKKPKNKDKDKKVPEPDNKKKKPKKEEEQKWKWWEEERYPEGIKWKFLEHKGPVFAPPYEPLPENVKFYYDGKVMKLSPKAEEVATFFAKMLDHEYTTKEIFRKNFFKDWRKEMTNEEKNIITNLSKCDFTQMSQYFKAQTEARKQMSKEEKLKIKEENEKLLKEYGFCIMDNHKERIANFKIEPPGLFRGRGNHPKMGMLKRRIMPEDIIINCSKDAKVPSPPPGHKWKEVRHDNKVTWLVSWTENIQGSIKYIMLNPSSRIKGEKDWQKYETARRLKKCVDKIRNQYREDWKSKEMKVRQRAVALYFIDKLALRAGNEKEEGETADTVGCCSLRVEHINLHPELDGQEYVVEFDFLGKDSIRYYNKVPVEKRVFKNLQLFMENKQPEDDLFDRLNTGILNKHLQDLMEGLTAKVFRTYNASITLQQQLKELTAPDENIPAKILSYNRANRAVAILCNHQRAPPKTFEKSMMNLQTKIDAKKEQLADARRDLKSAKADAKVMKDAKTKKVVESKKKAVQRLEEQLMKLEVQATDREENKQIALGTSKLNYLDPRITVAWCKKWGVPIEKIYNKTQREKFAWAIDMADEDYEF
In words: Inhibition of recombinant human topoisomerase 1-mediated relaxation of supercoiled pBR322 DNA at 100 uM measured after 30 mins by ethidium bromide staining based agarose gel electrophoresis relative to control.

The target of test [6] is DNA topoisomerase 2-alpha (Homo sapiens) (UniProt P11388). Briefly: Inhibition of recombinant human topoisomerase 2alpha-mediated relaxation of supercoiled pBR322 DNA at 100 uM measured after 30 mins by ethidium bromide staining based agarose gel electrophoresis relative to control.
Chain of DNA topoisomerase 2-alpha (Homo sapiens) (P11388 whole entry): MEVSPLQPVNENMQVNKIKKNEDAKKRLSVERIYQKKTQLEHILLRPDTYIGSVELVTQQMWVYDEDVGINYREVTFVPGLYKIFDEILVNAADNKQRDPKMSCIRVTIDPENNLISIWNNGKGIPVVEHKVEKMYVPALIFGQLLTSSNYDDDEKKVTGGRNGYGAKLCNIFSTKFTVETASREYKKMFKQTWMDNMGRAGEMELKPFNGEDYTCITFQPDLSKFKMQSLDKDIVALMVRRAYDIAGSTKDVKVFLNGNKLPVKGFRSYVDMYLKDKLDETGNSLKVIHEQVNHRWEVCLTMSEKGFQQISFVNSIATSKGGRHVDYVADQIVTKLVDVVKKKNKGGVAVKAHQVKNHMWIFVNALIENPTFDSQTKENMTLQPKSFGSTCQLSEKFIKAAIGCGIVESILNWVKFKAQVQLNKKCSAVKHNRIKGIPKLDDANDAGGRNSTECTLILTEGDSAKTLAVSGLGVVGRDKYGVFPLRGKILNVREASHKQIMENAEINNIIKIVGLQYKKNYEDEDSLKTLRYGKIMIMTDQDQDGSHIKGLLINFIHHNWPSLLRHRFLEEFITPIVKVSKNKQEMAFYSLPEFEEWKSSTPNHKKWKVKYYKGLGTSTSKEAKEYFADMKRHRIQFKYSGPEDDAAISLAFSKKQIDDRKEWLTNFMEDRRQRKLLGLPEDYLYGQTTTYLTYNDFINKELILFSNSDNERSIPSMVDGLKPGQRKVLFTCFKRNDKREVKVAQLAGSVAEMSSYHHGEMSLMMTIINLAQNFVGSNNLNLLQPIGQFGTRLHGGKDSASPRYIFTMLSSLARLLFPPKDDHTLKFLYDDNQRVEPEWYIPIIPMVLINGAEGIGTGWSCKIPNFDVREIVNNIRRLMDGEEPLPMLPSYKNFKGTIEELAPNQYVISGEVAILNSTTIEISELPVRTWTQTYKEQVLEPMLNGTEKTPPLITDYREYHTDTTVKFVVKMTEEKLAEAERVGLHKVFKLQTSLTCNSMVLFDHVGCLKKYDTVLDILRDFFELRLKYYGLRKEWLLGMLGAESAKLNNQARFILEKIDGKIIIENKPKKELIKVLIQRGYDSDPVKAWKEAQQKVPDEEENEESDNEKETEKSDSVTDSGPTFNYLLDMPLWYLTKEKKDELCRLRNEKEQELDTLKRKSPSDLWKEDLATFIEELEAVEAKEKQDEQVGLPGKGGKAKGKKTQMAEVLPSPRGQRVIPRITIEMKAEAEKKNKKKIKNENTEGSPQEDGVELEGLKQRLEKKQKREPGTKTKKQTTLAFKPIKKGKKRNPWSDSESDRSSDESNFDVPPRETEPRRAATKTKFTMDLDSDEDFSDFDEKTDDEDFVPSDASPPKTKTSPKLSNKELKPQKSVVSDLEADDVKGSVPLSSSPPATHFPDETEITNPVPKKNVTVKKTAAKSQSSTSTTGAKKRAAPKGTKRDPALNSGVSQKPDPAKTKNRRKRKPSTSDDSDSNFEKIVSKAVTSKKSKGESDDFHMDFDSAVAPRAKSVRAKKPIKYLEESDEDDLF
For test [7] the target is unchanged. In words: Inhibition of recombinant human topoisomerase 2alpha-mediated relaxation of supercoiled pBR322 DNA at 20 uM measured after 30 mins by ethidium bromide staining based agarose gel electrophoresis relative to control.

For the compound `Oc1cccc(-c2cc(-c3cccc(Cl)c3)c3c(n2)-c2cccc(O)c2C3)c1`, the concentration for half-maximal inhibition (IC50) in test [1] was found to be 4790 nM; in test [2], 33100 nM; in test [3], 21300 nM; in test [4] it was 35500 nM. The inhibition amounted to 7.4% in test [5], 64.6% in test [6] and 2.3% in test [7].
As to `Oc1ccc2c(c1)Cc1c(-c3ccccc3O)cc(-c3cccc(C(F)(F)F)c3)nc1-2`, the IC50 in test [1] amounted to 3890 nM; in test [2], 700 nM; in test [3], 1720 nM; in test [4], 3100 nM. Besides, the inhibition in test [5] came to 0%; in test [6], 85.4%; in test [7] it was 4.1%.
Regarding `Oc1cccc(-c2cc(-c3ccc(Cl)cc3)nc3c2Cc2cccc(O)c2-3)c1`, the half-inhibitory concentration (IC50) was 3050 nM in test [1], 3500 nM in test [2], 360 nM in test [3] and 6740 nM in test [4]. Further, the figures for the inhibition in test [5], in test [6] and in test [7] were 7.4%, 85.2% and 26.5%, respectively.
Turning to `Oc1cccc(-c2cc(-c3ccccc3)c3c(n2)-c2ccc(O)cc2C3)c1`, the 50% inhibitory concentration (IC50) came out at 1300 nM in test [1], 4120 nM in test [2], 270 nM in test [3] and 5700 nM in test [4]. The figures for the inhibition in test [5], in test [6] and in test [7] were 10.2%, 36% and 3.3%, respectively.
With `Oc1ccccc1-c1cc(-c2ccc(Cl)cc2)c2c(n1)-c1cccc(O)c1C2`, the 50% inhibitory concentration (IC50) in test [1] is over 50000 nM; in test [2], over 50000 nM; in test [3] it was 12800 nM; in test [4] it was over 50000 nM. The inhibition in test [5] stood at 8.4%; in test [6] it was 71.6%; in test [7], 1.5%.
`Oc1ccc2c(c1)-c1nc(-c3cccc(C(F)(F)F)c3)cc(-c3ccccc3O)c1C2`: the concentration for half-maximal inhibition (IC50) in test [1] was 2950 nM; in test [2], 510 nM; in test [3] it was 1630 nM; in test [4], 5250 nM. Further, the figures for the inhibition in test [5], in test [6] and in test [7] were 0%, 98.9% and 2.8%, respectively.
For `Oc1ccc2c(c1)Cc1c(-c3ccccc3O)cc(-c3ccccc3C(F)(F)F)nc1-2`, the concentration for half-maximal inhibition (IC50) was found to be 1610 nM in test [1], 1140 nM in test [2], 2020 nM in test [3] and 2920 nM in test [4]. Further, the inhibition is 1.6% in test [5], 90.2% in test [6] and 3.7% in test [7].
Turning to `Oc1cccc2c1-c1nc(-c3ccccc3)cc(-c3ccccc3)c1C2`, the IC50 in test [1] was determined as 2070 nM; in test [2] it was 740 nM; in test [3], 1400 nM; in test [4] it was 3080 nM. The inhibition in test [5] worked out at 0%; in test [6] it was 57.5%; in test [7], 0%.
With `Oc1ccc2c(c1)Cc1c(-c3cccc(Cl)c3)cc(-c3ccccc3O)nc1-2`, the 50% inhibitory concentration (IC50) in test [1], in test [2], in test [3] and in test [4] was over 50000 nM throughout. Besides, the inhibition in test [5] amounted to 1.6%; in test [6] it was 74.3%; in test [7] it was 3.4%.
Regarding `Oc1cccc(-c2cc(-c3cccc(C(F)(F)F)c3)nc3c2Cc2ccc(O)cc2-3)c1`, the IC50 in test [1] came out at 8610 nM; in test [2], 1330 nM; in test [3], 1540 nM; in test [4], 4700 nM. The inhibition was 5.2% in test [5], 90.7% in test [6] and 10.5% in test [7].
On to `Oc1cccc(-c2cc(-c3ccc(C(F)(F)F)cc3)nc3c2Cc2cccc(O)c2-3)c1`, for which the concentration for half-maximal inhibition (IC50) in test [1] is 11300 nM; in test [2], 2140 nM; in test [3], 2220 nM; in test [4], 6660 nM. The values for the inhibition in test [5], in test [6] and in test [7] were 0%, 100% and 0%, respectively.
For `Oc1ccc2c(c1)Cc1c(-c3ccccc3O)cc(-c3ccccc3Cl)nc1-2`, the 50% inhibitory concentration (IC50) in test [1] amounted to 2340 nM; in test [2], 2860 nM; in test [3] it was 1510 nM; in test [4] it was 840 nM. In addition, the inhibition in test [5] stood at 11.7%; in test [6], 70.5%; in test [7], 8.2%.
`Oc1cccc(-c2cc(-c3ccc(Cl)cc3)c3c(n2)-c2cc(O)ccc2C3)c1`: the half-inhibitory concentration (IC50) is over 50000 nM in test [1], over 50000 nM in test [2], 32200 nM in test [3] and over 50000 nM in test [4]. For the same compound, the inhibition in test [5] is 7.3%; in test [6], 80.4%; in test [7], 12.4%.
Regarding `Oc1cccc(-c2cc(-c3ccccc3)nc3c2Cc2cc(O)ccc2-3)c1`, the IC50 worked out at 1480 nM in test [1], 2660 nM in test [2], 600 nM in test [3] and 5640 nM in test [4]. Moreover, the inhibition in test [5] stood at 20%; in test [6], 96.8%; in test [7], 0%.
As for `Oc1cccc(-c2cc(-c3ccc(Cl)cc3)c3c(n2)-c2c(O)cccc2C3)c1`, the IC50 in test [1] stood at 14700 nM; in test [2], 2220 nM; in test [3] it was 4070 nM; in test [4], 9010 nM. For the same compound, the inhibition in test [5] is 9.3%; in test [6] it was 95.7%; in test [7], 8.5%.
Consider `Oc1cccc(-c2cc(-c3ccc(C(F)(F)F)cc3)nc3c2Cc2cc(O)ccc2-3)c1`, for which the concentration for half-maximal inhibition (IC50) in test [1] was 6820 nM; in test [2], 8900 nM; in test [3], 1590 nM; in test [4] it was 11400 nM. Further, the inhibition was determined as 2.8% in test [5], 100% in test [6] and 14.9% in test [7].
In the case of `Oc1ccc(-c2cc(-c3cccc(F)c3)nc3c2Cc2cccc(O)c2-3)cc1`, the IC50 is over 50000 nM in test [1], 750 nM in test [2], 5780 nM in test [3] and 7200 nM in test [4]. Besides, the inhibition in test [5] amounted to 1.1%; in test [6], 67%; in test [7], 3.9%.
Consider `Oc1ccccc1-c1cc(-c2ccccc2C(F)(F)F)nc2c1Cc1cccc(O)c1-2`, for which the half-inhibitory concentration (IC50) in test [1] came out at 1640 nM; in test [2], 750 nM; in test [3], 2000 nM; in test [4], 1990 nM. Besides, the inhibition in test [5] worked out at 0%; in test [6] it was 84.8%; in test [7] it was 4%.
With `Oc1ccc2c(c1)Cc1c(-c3ccccc3O)cc(-c3cccc(Cl)c3)nc1-2`, the IC50 came to 2760 nM in test [1], 2770 nM in test [2], 360 nM in test [3] and 2690 nM in test [4]. Further, the values for the inhibition in test [5], in test [6] and in test [7] were 14.6%, 80.8% and 2.6%, respectively.
As to `Oc1ccccc1-c1cc(-c2ccc(Cl)cc2)nc2c1Cc1c(O)cccc1-2`, the 50% inhibitory concentration (IC50) was found to be 2310 nM in test [1], 1250 nM in test [2], 610 nM in test [3] and 1960 nM in test [4]. The inhibition in test [5] was determined as 14.5%; in test [6] it was 80.3%; in test [7], 7%.
`Oc1cccc2c1Cc1c(-c3ccccc3)cc(-c3ccccc3)nc1-2`: the 50% inhibitory concentration (IC50) in test [1] turned out to be 3390 nM; in test [2] it was 1770 nM; in test [3], 2710 nM; in test [4] it was 4180 nM. For the same compound, the inhibition in test [5] was found to be 4.6%; in test [6], 75.7%; in test [7], 1.3%.
Turning to `Oc1ccccc1-c1cc(-c2ccccc2C(F)(F)F)nc2c1Cc1c(O)cccc1-2`, the IC50 in test [1] was determined as 1740 nM; in test [2], 3020 nM; in test [3] it was 1380 nM; in test [4] it was 3950 nM. Moreover, the results for the inhibition in test [5], in test [6] and in test [7] were 3.5%, 83.7% and 1.8%, respectively.
Consider `Oc1ccc(-c2cc(-c3cccc(Cl)c3)c3c(n2)-c2c(O)cccc2C3)cc1`, for which the IC50 in test [1] was over 50000 nM; in test [2] it was 19000 nM; in test [3], 6040 nM; in test [4] it was 43800 nM. Further, the inhibition in test [5] was determined as 3.2%; in test [6], 71.6%; in test [7], 13.3%.
`Oc1ccc2c(c1)-c1nc(-c3cccc(Cl)c3)cc(-c3ccccc3O)c1C2`: the 50% inhibitory concentration (IC50) in test [1] is 1760 nM; in test [2], 1160 nM; in test [3], 320 nM; in test [4], 2770 nM. Also, the inhibition in test [5] is 22.9%; in test [6], 87.9%; in test [7] it was 10.8%.

The IC50 is the concentration that inhibits the measured activity by half. Higher therefore signals lower potency. The term inhibition denotes the drop in the measured response relative to a control, in per cent.
